Target: T1, AMSH (Associated Molecule with the SH3 domain of STAM) (Homo sapiens, UniProt O95630)
T1 sequence (O95630 219-424): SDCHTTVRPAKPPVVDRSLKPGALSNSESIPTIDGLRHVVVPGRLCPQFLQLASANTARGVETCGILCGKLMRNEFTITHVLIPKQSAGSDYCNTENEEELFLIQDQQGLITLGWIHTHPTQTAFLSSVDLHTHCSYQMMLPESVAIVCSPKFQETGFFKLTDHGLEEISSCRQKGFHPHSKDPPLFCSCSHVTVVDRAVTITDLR
Assay: FRET deubiquitinase assay with Lys63-linked diubiquitin probe
Format: biochemical

IC50: 16.2 ± 3.1 µM
Structure (SMILES): CCN1C(=O)C=CC1=O [NEM, N-ethylmaleimide]
